The values that follow come from PubChem BioAssay (NCI).

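Method: 48-hour compound exposure of cells in 96-well plates, five concentrations, linear interpolation of endpoints. GI50 = concentration required for 50% inhibition of growth. TGI denotes the concentration required for complete inhibition of growth.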

Test systems include CAKI-1 renal; CCRF-CEM leukemia; COLO 205 colon; HCT-116 colon; MALME-3M melanoma; SK-OV-3 ovarian; SNB-75 CNS; SW-620 colon; RPMI-8226 leukemia; HS 578T breast.
Assay in all cases: DTP human tumour cell line panel, 48 h

As to `CN1CC(C(=O)C2C(=O)c3ccccc3C2=O)C(=O)C(=O)C(C(=O)C2C(=O)c3ccccc3C2=O)C1` (stereo not given), the total growth inhibition concentration (TGI) with CAKI-1 renal, with CCRF-CEM leukemia, with COLO 205 colon, in the test with HCT-116 colon, with MALME-3M melanoma and with SK-OV-3 ovarian was over 100 µM each time. For the same compound, the TGI in the test with SNB-75 CNS and with SW-620 colon was over 100 µM throughout.
In the case of `CCCCOC(=O)NC(=O)c1cn(CCSCCOC(=O)NCCCCCCNC(=O)OCCSCCn2cc(C(=O)NC(=O)OCCCC)c(=O)[nH]c2=O)c(=O)[nH]c1=O`, the total growth inhibition concentration (TGI) in the test with COLO 205 colon was over 100 µM; with HCT-116 colon, over 100 µM; in the test on MALME-3M melanoma it was 76.6 µM; in the test with RPMI-8226 leukemia, over 100 µM; with SK-OV-3 ovarian it was over 100 µM; in the test with SNB-75 CNS it was over 100 µM.
With `COc1cc2c(cc1O)CC13CCC(=O)N1CCc1cc(OC)c(O)c-2c13` (stereo not given), the TGI with CAKI-1 renal, with CCRF-CEM leukemia, in the test with COLO 205 colon, in the test on HCT-116 colon, in the test with MALME-3M melanoma and in the test with RPMI-8226 leukemia was over 68.1 µM each time. For the same compound, the TGI with SNB-75 CNS and with SW-620 colon was over 68.1 µM throughout.
With `CO[C@@H]1CC(=O)C2(CC(=O)O[C@@H]2/C=C(\C)CCC=C(C)C)C[C@@H]1O` (stereo not given in full), the GI50 in the test with CAKI-1 renal was 0.87 µM; in the test on COLO 205 colon, 1.07 µM; in the test on HCT-116 colon it was 0.489 µM; in the test with HS 578T breast it was 4.74 µM; with RPMI-8226 leukemia, 0.118 µM; with SK-OV-3 ovarian it was 1.62 µM. Moreover, the GI50 is 1.2 µM with SNB-75 CNS and 0.754 µM with SW-620 colon. The TGI with CAKI-1 renal was 2.74 µM; in the test on COLO 205 colon, 2.11 µM; in the test with HCT-116 colon it was 1.14 µM; with HS 578T breast, over 50 µM; in the test on RPMI-8226 leukemia, 0.432 µM; with SK-OV-3 ovarian it was 5.3 µM. Moreover, the TGI was 3.66 µM in the test on SNB-75 CNS and over 50 µM in the test with SW-620 colon.
With `CC(=O)CCCCO`, the TGI in the test on CAKI-1 renal, with CCRF-CEM leukemia, in the test with COLO 205 colon, with HCT-116 colon, in the test on MALME-3M melanoma and in the test on RPMI-8226 leukemia was over 100 µM in each case. Moreover, the total growth inhibition concentration (TGI) with SK-OV-3 ovarian, in the test with SNB-75 CNS and with SW-620 colon was over 100 µM throughout.
For `COc1ccccc1NC(=O)C1=C(C)NC(C)=C(C(=O)Nc2ccccc2OC)C1c1ccc(C)cc1`, the TGI in the test on CAKI-1 renal is over 100 µM; in the test on COLO 205 colon, 44 µM; with HCT-116 colon it was over 100 µM; with MALME-3M melanoma, over 100 µM; in the test on RPMI-8226 leukemia it was over 100 µM; with SK-OV-3 ovarian it was over 100 µM. For the same compound, the TGI in the test with SNB-75 CNS and in the test on SW-620 colon was over 100 µM each time.
As for `Fc1ccc(C2SCc3nc4ccccc4n32)cc1` (stereo not given), the concentration for total growth inhibition (TGI) in the test with CAKI-1 renal was over 100 µM; in the test with CCRF-CEM leukemia, over 100 µM; in the test on COLO 205 colon, over 100 µM; with HCT-116 colon it was over 100 µM; in the test with MALME-3M melanoma, 73.1 µM; in the test on RPMI-8226 leukemia, over 100 µM. Further, the figures for the TGI in the test with SK-OV-3 ovarian, in the test with SNB-75 CNS and with SW-620 colon were over 100 µM, 9.55 µM and over 100 µM, respectively.
Regarding `O=C(CC(=O)N1N=C(N2c3ccccc3Sc3ccccc32)CC1c1ccccc1)Nc1ccc(Cl)cc1` (stereo not given), the TGI in the test on CAKI-1 renal, in the test with COLO 205 colon, in the test on HCT-116 colon, in the test on MALME-3M melanoma, in the test with SK-OV-3 ovarian and with SNB-75 CNS was over 100 µM in each case. In the test on SW-620 colon, this compound showed a TGI of over 100 µM.
As for `NC(=O)C(c1ccccc1)N1CCOCC1` (stereo not given), the TGI with CAKI-1 renal, with CCRF-CEM leukemia, with COLO 205 colon, in the test on HCT-116 colon, in the test on MALME-3M melanoma and in the test with RPMI-8226 leukemia was over 100 µM in each case. Besides, the concentration for total growth inhibition (TGI) with SK-OV-3 ovarian, in the test on SNB-75 CNS and in the test with SW-620 colon was over 100 µM in each case.
As for `CC(=O)OC1(C)C(=O)OC1(C)C(C)=O` (stereo not given), the total growth inhibition concentration (TGI) in the test on CAKI-1 renal, in the test with CCRF-CEM leukemia, in the test with COLO 205 colon, in the test on HCT-116 colon, in the test with MALME-3M melanoma and in the test on RPMI-8226 leukemia was over 100 µM in each case. Also, the concentration for total growth inhibition (TGI) in the test on SK-OV-3 ovarian, in the test on SNB-75 CNS and in the test on SW-620 colon was over 100 µM throughout.
`O=C1C(=O)N(c2ccc(Cl)cc2Cl)C(=O)C(=O)C1c1nc2ccccc2o1`: the concentration for total growth inhibition (TGI) with CAKI-1 renal, in the test with CCRF-CEM leukemia, in the test on COLO 205 colon, in the test on HCT-116 colon, with MALME-3M melanoma and in the test with RPMI-8226 leukemia was over 100 µM throughout. Moreover, the concentration for total growth inhibition (TGI) in the test on SK-OV-3 ovarian, with SNB-75 CNS and with SW-620 colon was over 100 µM each time.
As for `c1ccc2c(c1)[nH]c1cnc3c4cccnc4[nH]c3c12`, the TGI in the test with CAKI-1 renal was 33.7 µM; in the test on CCRF-CEM leukemia, 54.2 µM; with COLO 205 colon, 30.3 µM; with HCT-116 colon it was 30.8 µM; in the test with MALME-3M melanoma, 49 µM; in the test with RPMI-8226 leukemia, 58.5 µM. The TGI with SNB-75 CNS stood at 32.6 µM; with SW-620 colon, 32.3 µM.
As for `O=C1CN(C(=O)c2ccccc2)Cc2[nH]c3ccccc3c21`, the concentration for total growth inhibition (TGI) with CCRF-CEM leukemia, in the test with COLO 205 colon, in the test with HCT-116 colon, with MALME-3M melanoma, in the test on RPMI-8226 leukemia and in the test with SK-OV-3 ovarian was over 100 µM in each case. Besides, the TGI in the test with SNB-75 CNS and with SW-620 colon was over 100 µM throughout.
On to `O=C(OCC1CO1)c1cccs1` (stereo not given), for which the TGI in the test on CAKI-1 renal, in the test on CCRF-CEM leukemia, with COLO 205 colon, in the test on MALME-3M melanoma, with RPMI-8226 leukemia and with SK-OV-3 ovarian was over 100 µM in each case. Besides, the TGI with SNB-75 CNS and with SW-620 colon was over 100 µM throughout.
Regarding `CCN(CCCl)CCCNc1c2ccccc2nc2ccc(OC)cc12`, the GI50 in the test with CAKI-1 renal was 133 µM; with CCRF-CEM leukemia, 67.6 µM; in the test on MALME-3M melanoma, 754 µM; with SK-OV-3 ovarian, 446 µM; with SNB-75 CNS, 532 µM. Further, the results for the concentration for total growth inhibition (TGI) with COLO 205 colon, in the test with HCT-116 colon and in the test on SW-620 colon were 1.12 µM, 1.16 µM and 1.39 µM, respectively.

What is called TGI is the concentration at which net growth stops. Low values mean more potent growth arrest, high ones less potent growth arrest. A word on the GI50: it is the concentration at which growth is held to half of that of the control.
